In US20170122958A1, “Enzymes Functional Probes” (University of Dundee, priority 2013, published 2017):

Columns and labels:
[1] = test system: Brd2(1) and (2) wild type and leucine to alanine, valine and isoleucine mutants; test: DSF thermal stabilization (FIG. 15); type: binding, human; details: result in words
Description: (§1) DSF assays were performed on a LightCycler®480 from Roche or a Mx3005P Real Time PCR machine from Stratagene. […] SYPRO®Orange from Invitrogen Molecular Probes® was used as a reporter dye to monitor the denaturing process of the proteins. Samples were assayed on a 96-well plate with final protein concentrations of 2 μM for the LightCycler®480 and 6 μM for Mx3005P. Compounds were added at a final concentration of 10 μM for the LightCycler®480 and 30 μM for Mx3005P, while the tetra acetylated histone peptide was added to a final concentration of 100 μM and 300 μM respectively. […] The temperature was raised with a step of 0.6° C. per minute from 37° C. to 95° C. with the LightCycler®480 collecting 39 measurements per ° C., and 1° C. per minute from 25° C. to 95° C. with Mx3005P, collecting fluorescence readings at the end of each interval. Each sample was run in triplicates.
(§2) Collected data was analysed by IGOR Pro 6, a scientific software tool from Wave Metrics, Inc. Analysis was done following the recommendations of Niesen et al.. Fluorescence intensity was plotted as a function of temperature, generating a sigmoidal curve described by a two-state transition from folded to unfolded protein. Curves were fitted by the following sigmoidal equation: […]
(§3) A1 and A2 are the values of minimum and maximum intensities, respectively, x0 is the inflection point and dx is the rate. Fitted curves were differentiated in IGOR Pro 6 and the maximum of the first derivative was identified using the same program. These values correspond to the inflection points of the transition curves and thus to the melting temperatures of the proteins (Tm).

[2] = test system: WT and mutants (Leu to Ala, Leu to Val and Leu to Ile) of Brd2(2); test: ITC of compound into protein (FIG. 16); type: binding, human; details: 250 μM compound into 25 μM protein; result in words
Description: To investigate the utility of the new compounds further, the inventors performed isothermal titration experiments by titrating 250 μM compound solutions (AL, ME-Am1, ET-Am1, ME-Am2, ET-Am2, 9-ME, 9-ET, 9-ME-Am1 and 9-ET-Am1) 25 μM protein solutions (WT and mutants (Leu to Ala, Leu to Val and Leu to Ile) of Brd2(2)).
(§4) ITC experiments were carried out on a ITC200 instrument from MicroCal™ Experiments were conducted at 3 different temperatures 15° C., 25° C. and 30° C., while stirring at 1000 rpm. Buffers of proteins, peptide and compounds were matched to 20 mM HEPES pH 7.5 at 25° C. and 100 mM NaCl. Frozen protein was buffer exchanged as described for the DSF experiments. Each titration comprised 1 initial injection of 0.4 μl lasting 0.8 s, followed by 19 injections of 2 μl lasting 4 s each at 2 min intervals. The initial injection was discarded during data analysis. Standard and reverse titrations were conducted depending on the binding partners.
(§5) All the data was fitted to a single binding site model using the Microcal LLC ITC200 Origin software provided by the manufacturer to yield enthalpies of binding (ΔH) and binding constants (Kas). Further thermodynamic parameters were calculated from these values (changes in entropy ΔS, changes in free energy AG and dissociation constants (Kds)).

[3] = Solubility observations; details: observation in words
[4] = target: T1, Brd2(2) (Homo sapiens, UniProt P25440); test: ITC reverse titration of protein into compound; type: binding; details: ITC 30° C., 1% DMSO; for Kd: Kd Brd2(2)
T1 construct: Plasmids of the eight single BET bromodomain constructs Brd2(1), Brd2(2), Brd3(1), Brd3(2); His6 (N); made in house; host or cells: E. coli BL21(DE3)
Description: as §4
(§6) Reverse titrations were conducted to test the binding of the known ligands and the novel chemical probes to the wild types and the mutants. Experiments were carried out either at 25° C. or 30° C. […] In cases where the compound was solubilized in dimethyl sulfoxide, DMSO concentration was adjusted to 1% both in the syringe and in the cell.
as §5

[5] = target: T2, Brd2(1) (Homo sapiens, UniProt P25440); test: ITC reverse titration of protein into compound; type: binding; details: for ΔH Brd2(1): ITC 30° C., 1% DMSO
T2 construct: Plasmids of the eight single BET bromodomain constructs Brd2(1), Brd2(2), Brd3(1), Brd3(2); His6 (N); made in house; host or cells: E. coli BL21(DE3)
Description: as §4, §6, §5

[6] = target: T3, Brd2(2)*(Leu383-Ala) (Homo sapiens, UniProt P25440, L383A); test: DSF thermal shift; type: binding; set-up: Plasmids of the eight single BET bromodomain constructs Brd2(1), Brd2(2), Brd3(1), Brd3(2); His6 (N); made in house; host or cells: E. coli BL21(DE3); details: mutant
Description: as §1, §2, §3

[7] = target: T4, Brd2(1)*(Leu110-Ala) (Homo sapiens, UniProt P25440, L110A); test: DSF thermal shift; type: binding; set-up: Plasmids of the eight single BET bromodomain constructs Brd2(1), Brd2(2), Brd3(1), Brd3(2); His6 (N); made in house; host or cells: E. coli BL21(DE3); details: mutant
Description: as §1, §2, §3

[8] = target: T5, Brd4(1) (Homo sapiens, UniProt O60885); test: DSF thermal shift; type: binding; details: wild type
T5 construct: Plasmids of the eight single BET bromodomain constructs Brd2(1), Brd2(2), Brd3(1), Brd3(2), Brd4(1), Brd4(2), Brdt(1) and Brdt(2); His6 (N); made in house; host or cells: E. coli BL21(DE3)

[9] = target: T1, Brd2(2); test: DSF thermal shift; type: binding; details: wild type
[10] = target: T6, Brd4(2) (Homo sapiens, UniProt O60885); test: DSF thermal shift; type: binding; details: wild type
T6 construct: Plasmids of the eight single BET bromodomain constructs Brd2(1), Brd2(2), Brd3(1), Brd3(2), Brd4(1), Brd4(2), Brdt(1) and Brdt(2); His6 (N); made in house; host or cells: E. coli BL21(DE3)

[11] = target: T2, Brd2(1); test: DSF thermal shift; type: binding; details: wild type
[12] = target: T7, brd4(1)L094A (Homo sapiens, UniProt O60885, L94A); test: DSF thermal shift; type: binding; details: mutant
T7 construct: Plasmids of the eight single BET bromodomain constructs Brd2(1), Brd2(2), Brd3(1), Brd3(2), Brd4(1), Brd4(2), Brdt(1) and Brdt(2); His6 (N); made in house; host or cells: E. coli BL21(DE3)

[13] = target: T8, brd4(2)L387A (Homo sapiens, UniProt O60885, L387A); test: DSF thermal shift; type: binding; details: mutant
T8 construct: Plasmids of the eight single BET bromodomain constructs Brd2(1), Brd2(2), Brd3(1), Brd3(2), Brd4(1), Brd4(2), Brdt(1) and Brdt(2); His6 (N); made in house; host or cells: E. coli BL21(DE3)

[14] = target: T3, Brd2(2)*(Leu383-Ala); test: ITC reverse titration of protein into compound; type: binding; set-up: Plasmids of the eight single BET bromodomain constructs Brd2(1), Brd2(2), Brd3(1), Brd3(2), Brd4(1), Brd4(2), Brdt(1) and Brdt(2); His6 (N); made in house; host or cells: E. coli BL21(DE3); details: ITC 30° C., 1% DMSO; for Kd: Kd Brd2(2)* (Leu383-Ala)
Description: as §4, §6, §5

[15] = target: T4, Brd2(1)*(Leu110-Ala); test: ITC reverse titration of protein into compound; type: binding; set-up: Plasmids of the eight single BET bromodomain constructs Brd2(1), Brd2(2), Brd3(1), Brd3(2), Brd4(1), Brd4(2), Brdt(1) and Brdt(2); His6 (N); made in house; host or cells: E. coli BL21(DE3); details: for ΔH Brd2(1)* (Leu110-Ala): ITC 30° C., 1% DMSO
Description: as §4, §6, §5

T1 sequence (P25440 344-453 limits assumed): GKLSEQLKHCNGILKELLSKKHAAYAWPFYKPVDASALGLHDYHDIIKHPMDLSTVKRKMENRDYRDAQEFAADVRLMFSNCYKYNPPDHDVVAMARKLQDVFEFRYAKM
T2 sequence (P25440 74-180 limits assumed): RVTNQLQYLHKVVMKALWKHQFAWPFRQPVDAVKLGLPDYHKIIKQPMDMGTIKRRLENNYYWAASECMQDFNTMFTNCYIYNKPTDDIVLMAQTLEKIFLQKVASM
T4 sequence (P25440 74-180 L110A limits assumed): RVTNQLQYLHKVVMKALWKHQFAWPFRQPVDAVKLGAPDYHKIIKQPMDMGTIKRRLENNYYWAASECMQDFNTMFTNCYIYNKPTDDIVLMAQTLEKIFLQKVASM
T3 sequence (P25440 344-453 L383A limits assumed): as the sequence (P25440 344-453 limits assumed) above, with L40A counted along it

SMILES | Thermal stabilization of Brd2 mutants versus wild types (FIG. 15) [1] | Selectivity for Brd2(2) mutants relative to wild type by ITC (FIG. 16) [2] | Solubility [3] | ΔH Brd2(2) [4] | Kd [4] | Kd [5] | ΔH Brd2(1) [5] | ΔTm Brd2(2)*(Leu383-Ala) [6] | ΔTm Brd2(1)*(Leu110-Ala) [7] | ΔTm Brd4(1) [8] | ΔTm Brd2(2) [9] | ΔTm Brd4(2) [10] | ΔTm Brd2(1) [11] | ΔTm Brd4(1)* (L094A) [12] | ΔTm Brd4(2)* (L387A) [13] | ΔH Brd2(2)* (Leu383-Ala) [14] | Kd [14] | Kd [15] | ΔH Brd2(1)* (Leu110-Ala) [15]
CCNC(=O)[C@H](CC)[C@@H]1N=C(c2ccc(Cl)cc2)c2ccc(OC)cc2-n2c(C)nnc21 (racemic) [Compound 9-ET-Am1, (+−) (R)-2-((S)-6-(4-chlorophenyl)-9-methoxy-1-methyl-4H-benzo[f][1,2,4]triazolo[4,3-a][1,4]diazepin-4-yl)-N-ethylbutanamide] | smaller shifts | higher selectivity for the mutants relative to wild types |  |  |  |  |  |  |  |  |  |  |  |  |  |  |  |  | 
CCC[C@@H](C(=O)OC)[C@@H]1N=C(c2ccc(Cl)cc2)c2cc(OC)ccc2-n2c(C)nnc21 (racemic) [Compound 12, (+−)-methyl (R)-2-((S)-6-(4-chlorophenyl)-8-methoxy-1-methyl-4H-benzo[f][1,2,4]triazolo[4,3-a][1,4]diazepin-4-yl)pentanoate] | smaller shifts |  | lower than that for compounds with smaller bumps | -9.52 ± 0.5449 kcal/mol | 2390 ± 1480 nM | 5880 ± 1210 nM | -11.49 ± 1.048 kcal/mol | 5.0 ± 0.1 K | 4.0 ± 0.4 K | 2.9 ± 0.7 K | 2.1 ± 0.1 K | 3.2 ± 0.7 K | 1.7 ± 0.2 K | 6.4 ± 0.8 K | 6.7 ± 0.2 K | -7.095 ± 0.1069 kcal/mol | 265 ± 53.9 nM | 400 ± 82.4 nM | −11160 ± 241.8 cal/mol
COC(=O)[C@H](CC1CC1)[C@@H]1N=C(c2ccc(Cl)cc2)c2cc(OC)ccc2-n2c(C)nnc21 (racemic) [Compound 13, (+−)-methyl (R)-2-((S)-6-(4-chlorophenyl)-8-methoxy-1-methyl-4H-benzo[f][1,2,4]triazolo[4,3-a][1,4]diazepin-4-yl)-3-cyclopropylpropanoate] |  |  | lower than that for compounds with smaller bumps | -2.089 ± 0.211 kcal/mol | 3320 ± 1860 nM | 4310 ± 3050 nM | -3.402 ± 0.4335 kcal/mol | 5.3 ± 0.3 K | 3.7 ± 0.2 K | 1.2 ± 0.6 K | 3.7 ± 0.6 K | 2.0 ± 1.0 K | 0.5 ± 0.3 K | 5.6 ± 0.3 K | 5.8 ± 0.1 K | -7.868 ± 0.3365 kcal/mol | 667 ± 330 nM | 360 ± 68.2 nM | −9662 ± 162.7 cal/mol
